The subject of one assay is CM cells. Kind of assay: SRB cell viability assay, CM cells. It counts as cell-based, Human. Particulars: dark EC50 to light EC50. Here is the method:
TLD1433 is known to generate reactive oxygen species (ROS) with high quantum efficacy in many cancer cell lines. However, there is no report of the in vitro toxicity of this compound in eye melanoma (UM) cell lines. We determined the cell viability of three conjunctival melanoma cell lines (CRMM1, CRMM2 and CM2005.1), and three uveal melanoma cell lines (OMM1, OMM2.5, MEL270) in the presence of TLD1433, both in the dark or under green light irradiation (21 mW/cm^2, 19 J/cm^2, 520 nm, 15 min), and compared this viability to epidermoid carcinoma A431 and cutaneous melanoma A375 cell lines under the same conditions. […] The phototoxicity index (PI), defined as the ratio of the dark EC50 to the light EC50, was also calculated and represents the amplification of TLD1433 activity with a light trigger. […]
At day 0, cells were detached using 1mL of trypsin, resuspended in 4 mL of media and transferred to a 15 mL corning falcon tube. Cells were counted using trypan blue and BioRad® TC20™ automated cell counter (Figure 11). Dilutions of 6000 (CRMM1), 6000 (CRMM2), 8000 (CM2005.1), 6000 (OMM1), 6000 (OMM2.5), 6000 (MEL270) 8000 (A431), and 4000 (A375) cells/well were calculated from each cell suspension at a final volume of 6 mL using the following formula: Vc=(Vt×10C)/Lc where Vt = total volume of solution, C = number of cells per well/per 100 μL and Lc = live cells count (cells/mL). […]

The subject of assay [1] is OMM2.5 uveal melanoma cell line. Kind of assay: SRB cell viability assay, OMM2.5. It is filed as cell-based, Human. Here is the method: TLD1433 is known to generate reactive oxygen species (ROS) with high quantum efficacy in many cancer cell lines. However, there is no report of the in vitro toxicity of this compound in eye melanoma (UM) cell lines. We determined the cell viability of three conjunctival melanoma cell lines (CRMM1, CRMM2 and CM2005.1), and three uveal melanoma cell lines (OMM1, OMM2.5, MEL270) in the presence of TLD1433, both in the dark or under green light irradiation (21 mW/cm^2, 19 J/cm^2, 520 nm, 15 min), and compared this viability to epidermoid carcinoma A431 and cutaneous melanoma A375 cell lines under the same conditions. The protocol used was based on previous work from the Bonnet group, and differed slightly from recommendations from McFarland et al.. […] The effective concentration (EC50) values, i.e., the concentration required to reduce cell viability by 50% compared to untreated wells, were assessed by fitting the dose-response curves with a Hill equation. The phototoxicity index (PI), defined as the ratio of the dark EC50 to the light EC50, was also calculated and represents the amplification of TLD1433 activity with a light trigger. […]
Figure 2 Cell viability after TLD1433 treatment of eight tumour cell lines (CRMM1, CRMM2, CM2005.1, OMM1, OMM2.5, MEL270, A431, A375). […] The absorbance of Sulforhodamine B in solution was measured at 520 nm. […]
At day 0, cells were detached using 1mL of trypsin, resuspended in 4 mL of media and transferred to a 15 mL corning falcon tube. Cells were counted using trypan blue and BioRad® TC20™ automated cell counter (Figure 11). Dilutions of 6000 (CRMM1), 6000 (CRMM2), 8000 (CM2005.1), 6000 (OMM1), 6000 (OMM2.5), 6000 (MEL270) 8000 (A431), and 4000 (A375) cells/well were calculated from each cell suspension at a final volume of 6 mL using the following formula: Vc=(Vt×10C)/Lc where Vt = total volume of solution, C = number of cells per well/per 100 μL and Lc = live cells count (cells/mL). […] Next day, the dye was dissolved using Tri-base (0.25%) and absorbance of SRB at 510 nm was recorded from each well using a Tecan plate reader. […]

Each structure is given as a SMILES string. Like-named read-outs stand apart in the source and are kept apart here.

`Cc1ccnc(-c2cc(C)ccn2)c1.Cc1ccnc(-c2cc(C)ccn2)c1.[Cl-].[Cl-].[Ru+2].c1csc(-c2ccc(-c3ccc(-c4nc5c6cccnc6c6ncccc6c5[nH]4)s3)s2)c1` [TLD1433]: the PI in the assay on CM cells is given as > 140. Besides, the EC50 in assay [1] (OMM2.5, dark, 24 h treatment, SRB, read-out: EC50, dark) was determined as 640 nM; in assay [1] (OMM2.5, green light 520 nm, 15 min, 21 mW/cm^2, 19 J.cm^−2, DLI 24 h, read-out: EC50,light), 13 nM. The “PI (photo index)” value in assay [1] (OMM2.5, ratio of dark and light EC50, 19 J.cm^−2 green light) stood at 49.

Values taken from paper PMC7139549, “TLD1433 Photosensitizer Inhibits Conjunctival Melanoma Cells in Zebrafish Ectopic and Orthotopic Tumour Models” (Cancers, 2020).
